Laboratory results from ChEMBL document CHEMBL1130626, “MEK inhibitors: the chemistry and biological activity of U0126, its analogs, and cyclization products” (Bioorg Med Chem Lett, 1998).

How the values were obtained:
[1] = molecular target: T1, Dual specificity mitogen-activated protein kinase kinase 1 (Homo sapiens, UniProt Q02750)
[2] = molecular target: Dual specificity mitogen-activated protein kinase kinase; MEK1/2 (Homo sapiens, UniProt P36507+Q02750); experiment: Ability to antagonise AP-1 transcriptional activity; format: functional
[3] = molecular target: T1, Dual specificity mitogen-activated protein kinase kinase 1; experiment: Inhibition of the dual specificity kinase MEK-1 (Inactive)
[4] = molecular target: T1, Dual specificity mitogen-activated protein kinase kinase 1; experiment: Non-competitive inhibition of the dual specificity kinase MEK at the concentration 10 uM

T1 sequence (Q02750 whole entry): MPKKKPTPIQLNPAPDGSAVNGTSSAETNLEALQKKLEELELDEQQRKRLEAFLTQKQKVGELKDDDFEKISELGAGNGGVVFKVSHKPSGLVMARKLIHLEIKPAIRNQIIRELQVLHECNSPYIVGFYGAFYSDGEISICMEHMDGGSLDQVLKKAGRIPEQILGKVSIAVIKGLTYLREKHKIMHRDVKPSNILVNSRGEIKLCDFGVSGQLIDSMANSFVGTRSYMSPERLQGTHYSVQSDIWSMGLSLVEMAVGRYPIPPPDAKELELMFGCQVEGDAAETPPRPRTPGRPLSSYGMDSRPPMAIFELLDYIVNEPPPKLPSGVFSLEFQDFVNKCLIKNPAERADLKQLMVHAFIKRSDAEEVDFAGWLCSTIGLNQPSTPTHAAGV

With `Cc1ccccc1S/C(N)=C(C#N)/C(C#N)=C(\N)Sc1ccccc1C` the IC50 [1] was 2000 nM and the IC50 [2] was 13.3 µM.

`CC(=O)Nc1ccccc1Sc1c(C#N)c(C#N)c2sc3ccccc3n12` was tested, and the IC50 [3] was “Not Active”.

`N#Cc1c(Sc2ccc3ccccc3c2)[nH]c(Sc2ccc3ccccc3c2)c1C#N` was tested, and the IC50 [1] was 2100 nM and the IC50 [2] was 28.9 µM.

For `N#CC(=C(/N)Sc1ccccc1-c1ccccc1)/C(C#N)=C(\N)Sc1ccccc1-c1ccccc1`, the inhibition [4] was 8.7%.

In the case of `CN1/C(=C(C#N)\C(C#N)=C2\Sc3ccccc3N2C)Sc2ccccc21`, the IC50 [3] is reported as “Not Active”.

Work on `N#CC(=C(/N)Sc1cccs1)/C(C#N)=C(\N)Sc1cccs1` yielded an IC50 [1] of 300 nM and an IC50 [2] of 1.2 µM.

With `N#CC(=C(/N)Sc1ccc2ccccc2c1N)/C(C#N)=C(\N)Sc1ccc2ccccc2c1N` the IC50 [1] was 2100 nM.

`N#CC(=C1/Nc2ccccc2S1)/C(C#N)=C1\Nc2ccccc2S1` showed an IC50 [1] of 700 nM and an IC50 [2] of 42.5 µM.

In the case of `N#CC(=C(/N)Sc1ccc2ccccc2c1)/C(C#N)=C(\N)Sc1ccc2ccccc2c1`, the inhibition [4] is reported as 54%.

`COc1ccccc1S/C(N)=C(C#N)/C(C#N)=C(\N)Sc1ccccc1OC` gave an IC50 [1] of 4500 nM and an IC50 [2] of 16.5 µM.

`N#CC(=C(/N)Sc1c(F)c(F)c(F)c(F)c1F)/C(C#N)=C(\N)Sc1c(F)c(F)c(F)c(F)c1F` was tested, and the inhibition [4] was 17%.

Compound `N#CC(=C(/N)Sc1ccc(-c2ccccc2)cc1)/C(C#N)=C(\N)Sc1ccc(-c2ccccc2)cc1` has an inhibition [4] of 34%.

For `N#CC(=C(/N)Sc1cccc2ccccc12)/C(C#N)=C(\N)Sc1cccc2ccccc12`, the inhibition [4] was 26%.

`N#CC(=C(/N)Sc1ccccc1CO)/C(C#N)=C(\N)Sc1ccccc1CO` showed an inhibition [4] of 51%.

Compound `N#CC(=C(/N)Sc1ccc(Cl)cc1)/C(C#N)=C(\N)Sc1ccc(Cl)cc1` has an IC50 [1] of 2100 nM and an IC50 [2] of 21.7 µM.

`CCc1ccccc1S/C(N)=C(C#N)/C(C#N)=C(\N)Sc1ccccc1CC` gave an inhibition [4] of 18%.

`N#CC(=C(/N)Sc1ccccc1[N+](=O)[O-])/C(C#N)=C(\N)Sc1ccccc1[N+](=O)[O-]` showed an inhibition [4] of 41%.

`CC(=O)Nc1ccc(S/C(N)=C(C#N)/C(C#N)=C(\N)Sc2ccc(NC(C)=O)cc2)cc1` showed an inhibition [4] of 0%.

`N#CC(=C(/N)Sc1ccccc1F)/C(C#N)=C(\N)Sc1ccccc1F` showed an IC50 [1] of 900 nM and an IC50 [2] of 7.6 µM.

Compound `N#Cc1c(NS(=O)(=O)c2ccccc2)[nH]c(Sc2ccc3ccccc3c2)c1C#N` has an IC50 [1] of 1900 nM and an IC50 [2] of 8 µM.

With `N#Cc1c(C#N)c2sc3ccccc3n2c1Sc1ccccc1N` the IC50 [3] was “Not Active”.

`N#CC(=C(/N)Sc1cc(I)ccc1N)/C(C#N)=C(\N)Sc1cc(I)ccc1N` was tested, and the inhibition [4] was 34.8%.

With `COc1ccc(S/C(N)=C(C#N)/C(C#N)=C(\N)Sc2ccc(OC)c(OC)c2)cc1OC` the inhibition [4] was 0%.

In the case of `N#CC(=C(/N)Sc1ccc(C(F)(F)F)cc1)/C(C#N)=C(\N)Sc1ccc(C(F)(F)F)cc1`, the inhibition [4] is reported as 33%.

`COc1ccc(OC)c(S/C(N)=C(C#N)/C(C#N)=C(\N)Sc2cc(OC)ccc2OC)c1` showed an inhibition [4] of 18%.

`N#CC(=C(/N)Sc1cccc(Cl)c1)/C(C#N)=C(\N)Sc1cccc(Cl)c1` gave an IC50 [1] of 1900 nM and an IC50 [2] of 18.4 µM.

`N#CC(=C(/N)Sc1ccccc1N)/C(C#N)=C1\Nc2ccccc2S1` was tested, and the IC50 [1] was 3200 nM and the IC50 [2] was 18.7 µM.

`N#CC(=C(/N)Sc1ccccc1Cl)/C(C#N)=C(\N)Sc1ccccc1Cl` showed an IC50 [1] of 900 nM and an IC50 [2] of 6.6 µM.

Work on `N#CC(=C(/N)SCCO)/C(C#N)=C(\N)SCCO` yielded an inhibition [4] of 0%.

Work on `N#CC(=C(/N)Sc1cccc(-c2ccccc2)c1)/C(C#N)=C(\N)Sc1cccc(-c2ccccc2)c1` yielded an inhibition [4] of 54.6%.

For `N#CC(=C(/N)Sc1ccccc1O)/C(C#N)=C(\N)Sc1ccccc1O`, the IC50 [1] was 300 nM and the IC50 [2] was 0.4 µM.

`N#CC(=C(/N)Sc1ccccc1Br)/C(C#N)=C(\N)Sc1ccccc1Br` showed an IC50 [1] of 1100 nM and an IC50 [2] of 7.9 µM.

Work on `N#CC(=C(/N)Sc1ccccc1)/C(C#N)=C(\N)Sc1ccccc1` yielded an IC50 [1] of 900 nM and an IC50 [2] of 12.2 µM.

In the case of `N#CC(=C(/N)Sc1cccc(C(F)(F)F)c1)/C(C#N)=C(\N)Sc1cccc(C(F)(F)F)c1`, the inhibition [4] is reported as 32%.

For `CNc1ccccc1S/C(N)=C(C#N)/C(C#N)=C(\N)Sc1ccccc1NC`, the inhibition [4] was 19.1%.

`N#CC(=C(/N)Sc1ccc(O)cc1)/C(C#N)=C(\N)Sc1ccc(O)cc1` gave an IC50 [1] of 400 nM.

`N#CC(=C(/N)Sc1c(Cl)cccc1Cl)/C(C#N)=C(\N)Sc1c(Cl)cccc1Cl` gave an IC50 [1] of 2800 nM and an IC50 [2] of 6.5 µM.

Compound `N#Cc1c(N)[nH]c(Sc2ccccc2N)c1C#N` has an IC50 [1] of 13500 nM and an IC50 [2] of 26.2 µM.

`N#Cc1c(N)[nH]c(Sc2ccc3ccccc3c2)c1C#N` showed an IC50 [1] of 1400 nM and an IC50 [2] of 25.1 µM.

`CS/C(N)=C(C#N)/C(C#N)=C(\N)SC` was tested, and the inhibition [4] was 24%.
